For 22 molecules, IC50 results are on record in patent US20260297080A1, “BICYCLIC COMPOUNDS AS CDK INHIBITORS” (BeOne Medicines I GmbH, priority 2022, published 2026).

For one assay, the target named is CDK2/Cyclin E1 (Homo sapiens, UniProt P24941). In words: CDK2/Cyclin E1 Biochemical Assay (TR-FRET), 0.060 mM ATP. To be noted: 0.15 μM Rb (Ser780)-biotin substrate, pH7.0, 60 min preincubation, 120 min reaction, room temperature. A digest of the protocol:
(§1)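 Kinase preincubated with compound (0–10 μM) 60 min at room temperature, then reaction started with ATP and 0.15 μM Rb (Ser780)-biotin peptide and run 120 min in HEPES pH 7.0 buffer with 50 mM MgCl2. Phospho-Rb detected by Eu-cryptate anti-pRb(Ser780)/streptavidin-XL665 TR-FRET (665/620 nm ratio); IC50 from four-parameter logistic fit.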
(Time-resolved FRET reads energy transfer from a long-lived donor to a nearby acceptor.)

The target of another assay is CDK1/Cyclin B1 (Homo sapiens, UniProt P06493). Description: CDK1/Cyclin B1 Biochemical Assay (TR-FRET), 0.015 mM ATP. The note with it: 0.15 μM Rb (Ser780)-biotin substrate, pH7.0, 60 min preincubation, 120 min reaction, room temperature. An outline of the steps:
as §1

A word on the IC50: it is the concentration that gives 50% inhibition. Read a low IC50 as inhibition by little substance.

CDK1/Cyclin B1, sequence (P06493 whole entry): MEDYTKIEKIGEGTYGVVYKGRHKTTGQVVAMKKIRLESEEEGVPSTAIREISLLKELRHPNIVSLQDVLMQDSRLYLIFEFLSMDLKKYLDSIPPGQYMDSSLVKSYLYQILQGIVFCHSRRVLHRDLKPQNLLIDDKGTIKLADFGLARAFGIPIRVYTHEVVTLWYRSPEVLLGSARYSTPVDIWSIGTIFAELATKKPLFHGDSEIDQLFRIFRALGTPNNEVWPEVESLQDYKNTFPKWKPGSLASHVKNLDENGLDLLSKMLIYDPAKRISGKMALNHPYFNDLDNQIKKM
CDK1/Cyclin B1, sequence (P14635 whole entry partner): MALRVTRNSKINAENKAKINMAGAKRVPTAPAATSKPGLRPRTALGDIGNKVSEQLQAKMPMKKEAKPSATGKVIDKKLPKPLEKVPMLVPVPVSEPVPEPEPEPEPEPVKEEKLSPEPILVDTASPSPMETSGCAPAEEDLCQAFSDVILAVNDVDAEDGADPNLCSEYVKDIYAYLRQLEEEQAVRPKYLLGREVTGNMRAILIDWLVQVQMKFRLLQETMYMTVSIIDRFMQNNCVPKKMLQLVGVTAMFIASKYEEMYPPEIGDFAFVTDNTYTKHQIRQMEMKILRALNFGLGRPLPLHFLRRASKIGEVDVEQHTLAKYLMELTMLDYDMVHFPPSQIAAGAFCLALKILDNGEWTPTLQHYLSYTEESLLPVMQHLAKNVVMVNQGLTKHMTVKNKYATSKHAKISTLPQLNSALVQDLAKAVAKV

As to `CC(C)NC(=O)O[C@H]1CC[C@@H](c2cc(Nc3ccc4c(c3)CS(=O)(=O)N4C(C)C3CCOC3)n[nH]2)C1` (relative stereo) [Example 218, cis-3-(3-((2,2-dioxido-1-(1-(tetrahydrofuran-3-yl)ethyl)-1,3-dihydrobenzo[c]isothiazol-5-yl)amino)-1H-pyrazol-5-yl)cyclopentyl isopropylcarbamate], the IC50 on CDK2/Cyclin E1 was 0.112 µM; against CDK1/Cyclin B1 it was 0.999 µM.

`O=C(NCC1CC1)O[C@H]1CC[C@@H](c2cc(Nc3ccc4c(c3F)CNS4(=O)=O)n[nH]2)C1` (relative stereo) [Example 414, cis-3-(3-((4-fluoro-1,1-dioxido-2,3-dihydrobenzo[d]isothiazol-5-yl)amino)-1H-pyrazol-5-yl)cyclopentyl(cyclopropylmethyl)carbamate]: the IC50 against CDK2/Cyclin E1 amounted to 0.0073 µM; on CDK1/Cyclin B1, 0.232 µM.

In the case of `CC[C@H](C)NC(=O)O[C@H]1CC[C@@H](c2cc(Nc3ccc4c(c3)NS(=O)(=O)C4)n[nH]2)C1` (relative stereo) [Example 306, cis-3-(3-((2,2-dioxido-1,3-dihydrobenzo[c]isothiazol-6-yl)amino)-1H-pyrazol-5-yl)cyclopentyl((S)-sec-butyl)carbamate], the IC50 on CDK2/Cyclin E1 was determined as 0.0028 µM; against CDK1/Cyclin B1, 0.027 µM.

For the molecule `[2H]C([2H])([2H])N1c2c(F)cc(Nc3cc([C@@H]4CC[C@H](OC(=O)NCCC)C4)[nH]n3)cc2CS1(=O)=O` (single isomer, unassigned) [Example 290b, cis-3-(3-((7-fluoro-1-(methyl-d3)-2,2-dioxido-1,3-dihydrobenzo[c]isothiazol-5-yl)amino)-1H-pyrazol-5-yl)cyclopentyl propylcarbamate], the IC50 against CDK2/Cyclin E1 amounted to 0.0075 µM; on CDK1/Cyclin B1, 0.094 µM.

`CC[C@H](C)NC(=O)O[C@H]1CC[C@@H](c2cc(Nc3ccc4c(c3F)CN(C3CC3)S4(=O)=O)n[nH]2)C1` (racemic) [Example 117, cis-3-(3-((2-cyclopropyl-4-fluoro-1,1-dioxido-2,3-dihydrobenzo[d]isothiazol-5-yl)amino)-1H-pyrazol-5-yl)cyclopentyl((S)-sec-butyl)carbamate]: the figures for the IC50 at CDK2/Cyclin E1 and against CDK1/Cyclin B1 were 0.0096 µM and 0.431 µM, respectively.

Turning to `CC(C)NC(=O)O[C@H]1CC[C@@H](c2cc(Nc3ccc4c(c3)C(C)NS4(=O)=O)n[nH]2)C1` (single isomer, unassigned) [Example 321b, cis-3-(3-((3-methyl-1,1-dioxido-2,3-dihydrobenzo[d]isothiazol-5-yl)amino)-1H-pyrazol-5-yl)cyclopentyl isopropylcarbamate], the IC50 stood at 0.0006 µM on CDK2/Cyclin E1 and 0.015 µM against CDK1/Cyclin B1.

Take `CC1(NC(=O)O[C@H]2CC[C@@H](c3cc(Nc4ccc5c(c4F)CS(=O)(=O)N5C4CC4)n[nH]3)C2)COC1` (relative stereo) [Example 362, cis-3-(3-((1-cyclopropyl-4-fluoro-2,2-dioxido-1,3-dihydrobenzo[c]isothiazol-5-yl)amino)-1H-pyrazol-5-yl)cyclopentyl(3-methyloxetan-3-yl)carbamate]: the IC50 was determined as 0.0038 µM against CDK2/Cyclin E1 and 0.133 µM on CDK1/Cyclin B1.

`CN1c2ccc(Nc3cc([C@@H]4CC[C@H](OC(=O)NC(C)(C)CO)C4)[nH]n3)c(F)c2CS1(=O)=O` (single isomer, unassigned) [Example 327a, cis-3-(3-((4-fluoro-1-methyl-2,2-dioxido-1,3-dihydrobenzo[c]isothiazol-5-yl)amino)-1H-pyrazol-5-yl)cyclopentyl(1-hydroxy-2-methylpropan-2-yl)carbamate]: the IC50 at CDK2/Cyclin E1 is 0.0015 µM; on CDK1/Cyclin B1, 0.143 µM.

With `COc1cc2c(cc1Nc1cc([C@@H]3CC[C@H](OC(=O)NC(C)C)C3)[nH]n1)C(C)(C)NS2(=O)=O` (relative stereo) [Example 23, cis-3-(3-((6-methoxy-3,3-dimethyl-1,1-dioxido-2,3-dihydrobenzo[d]isothiazol-5-yl)amino)-1H-pyrazol-5-yl)cyclopentyl isopropylcarbamate], the IC50 was 0.244 µM against CDK2/Cyclin E1 and 1.17 µM against CDK1/Cyclin B1.

On to `CC(C)NC(=O)O[C@H]1CC[C@@H](c2cc(Nc3ccc4c(c3F)CN(C(C)C)S4(=O)=O)n[nH]2)C1` (relative stereo) [Example 65, cis-3-(3-((4-fluoro-2-isopropyl-1,1-dioxido-2,3-dihydrobenzo[d]isothiazol-5-yl)amino)-1H-pyrazol-5-yl)cyclopentyl isopropylcarbamate], for which the IC50 is 0.0069 µM against CDK2/Cyclin E1 and 0.299 µM on CDK1/Cyclin B1.

For `CN1c2ccc(Nc3cc([C@@H]4CC[C@H](OC(=O)NC5(C)CCOC5)C4)[nH]n3)cc2CS1(=O)=O` (relative stereo) [Example 239, cis-3-(3-((1-methyl-2,2-dioxido-1,3-dihydrobenzo[c]isothiazol-5-yl)amino)-1H-pyrazol-5-yl)cyclopentyl(3-methyltetrahydrofuran-3-yl)carbamate], the values for the IC50 at CDK2/Cyclin E1 and at CDK1/Cyclin B1 were 0.0096 µM and 0.158 µM, respectively.

Consider `CC1NS(=O)(=O)c2ccc(Nc3cc([C@@H]4CC[C@H](OC(=O)NC5(C)CC5)C4)[nH]n3)cc21` (single isomer, unassigned) [Example 322d, cis-3-(3-((3-methyl-1,1-dioxido-2,3-dihydrobenzo[d]isothiazol-5-yl)amino)-1H-pyrazol-5-yl)cyclopentyl(1-methylcyclopropyl)carbamate], for which the IC50 at CDK2/Cyclin E1 turned out to be 0.0007 µM; on CDK1/Cyclin B1, 0.0056 µM.

For the molecule `CC(C)NC(=O)O[C@H]1CC[C@@H](c2cc(Nc3ccc4c(c3F)CN(C3COC3)S4(=O)=O)n[nH]2)C1` (single isomer, unassigned) [Example 133b, cis-3-(3-((4-fluoro-2-(oxetan-3-yl)-1,1-dioxido-2,3-dihydrobenzo[d]isothiazol-5-yl)amino)-1H-pyrazol-5-yl)cyclopentyl isopropylcarbamate], the IC50 against CDK2/Cyclin E1 amounted to 0.0086 µM; against CDK1/Cyclin B1, 0.456 µM.

Turning to `CC(C)NC(=O)O[C@H]1CC[C@@H](c2cc(Nc3ccc4c(c3F)CN(CC(O)CO)S4(=O)=O)n[nH]2)C1` (relative stereo) [Example 71, cis-3-(3-((2-(2,3-dihydroxypropyl)-4-fluoro-1,1-dioxido-2,3-dihydrobenzo[d]isothiazol-5-yl)amino)-1H-pyrazol-5-yl)cyclopentyl isopropylcarbamate], the results for the IC50 against CDK2/Cyclin E1 and against CDK1/Cyclin B1 were 0.0052 µM and 0.44 µM, respectively.

Regarding `CN1Cc2c(ccc(Nc3cc([C@@H]4CC[C@H](OC(=O)NC5CCC(O)CC5)C4)[nH]n3)c2F)S1(=O)=O` (single isomer, unassigned) [Example 166, cis-3-(3-((4-fluoro-2-methyl-1,1-dioxido-2,3-dihydrobenzo[d]isothiazol-5-yl)amino)-1H-pyrazol-5-yl)cyclopentyl(4-hydroxycyclohexyl)carbamate], the IC50 was determined as 0.0029 µM against CDK2/Cyclin E1 and 0.074 µM at CDK1/Cyclin B1.

In the case of `CC1NS(=O)(=O)c2ccc(Nc3cc([C@@H]4CC[C@H](OC(=O)NC5(C)CC5)C4)[nH]n3)cc21` (single isomer, unassigned) [Example 322b, cis-3-(3-((3-methyl-1,1-dioxido-2,3-dihydrobenzo[d]isothiazol-5-yl)amino)-1H-pyrazol-5-yl)cyclopentyl(1-methylcyclopropyl)carbamate], the IC50 at CDK2/Cyclin E1 is 0.0006 µM; on CDK1/Cyclin B1, 0.0032 µM.

With `CC(C)NC(=O)O[C@H]1CC[C@@H](c2cc(Nc3ccc4c(c3F)CNS4(=O)=O)n[nH]2)C1` (single isomer, unassigned) [Example 9b, cis-3-(3-((4-fluoro-1,1-dioxido-2,3-dihydrobenzo[d]isothiazol-5-yl)amino)-1H-pyrazol-5-yl)cyclopentyl isopropylcarbamate], the half-inhibitory concentration (IC50) against CDK2/Cyclin E1 came out at 0.0025 µM; at CDK1/Cyclin B1, 0.094 µM.

With `O=C(NC1CCCC1)O[C@H]1CC[C@@H](c2cc(Nc3ccc4c(c3)CS(=O)(=O)N4)n[nH]2)C1` (single isomer, unassigned) [Example 381b, cis-3-(3-((2,2-dioxido-1,3-dihydrobenzo[c]isothiazol-5-yl)amino)-1H-pyrazol-5-yl)cyclopentyl cyclopentylcarbamate], the IC50 against CDK2/Cyclin E1 was found to be 0.0009 µM; at CDK1/Cyclin B1, 0.019 µM.

For the molecule `CC[C@H](C)NC(=O)O[C@H]1CC[C@@H](c2cc(Nc3ccc4c(c3F)CS(=O)(=O)N4C3COC3)n[nH]2)C1` (racemic) [Example 261, cis-3-(3-((4-fluoro-1-(oxetan-3-yl)-2,2-dioxido-1,3-dihydrobenzo[c]isothiazol-5-yl)amino)-1H-pyrazol-5-yl)cyclopentyl((S)-sec-butyl)carbamate], the IC50 turned out to be 0.0013 µM on CDK2/Cyclin E1 and 0.049 µM against CDK1/Cyclin B1.

Take `CC(C)NC(=O)O[C@H]1CC[C@@H](c2cc(Nc3ccc4c(c3)C(F)(F)S(=O)(=O)N4C)n[nH]2)C1` (relative stereo) [Example 346, cis-3-(3-((3,3-difluoro-1-methyl-2,2-dioxido-1,3-dihydrobenzo[c]isothiazol-5-yl)amino)-1H-pyrazol-5-yl)cyclopentyl isopropylcarbamate]: the values for the IC50 against CDK2/Cyclin E1 and on CDK1/Cyclin B1 were 0.031 µM and 0.482 µM, respectively.

Take `CC(C)NC(=O)O[C@H]1CC[C@@H](c2cc(Nc3ccc4c(c3)CS(=O)(=O)N4CCC3CCOCC3)n[nH]2)C1` (relative stereo) [Example 217, cis-3-(3-((2,2-dioxido-1-(2-(tetrahydro-2H-pyran-4-yl)ethyl)-1,3-dihydrobenzo[c]isothiazol-5-yl)amino)-1H-pyrazol-5-yl)cyclopentyl isopropylcarbamate]: the IC50 on CDK2/Cyclin E1 came out at 0.0088 µM; at CDK1/Cyclin B1, 0.126 µM.

For the molecule `[2H]C([2H])([2H])N1c2c(F)cc(Nc3cc([C@@H]4CC[C@H](OC(=O)NCCC)C4)[nH]n3)cc2CS1(=O)=O` (single isomer, unassigned) [Example 290a, cis-3-(3-((7-fluoro-1-(methyl-d3)-2,2-dioxido-1,3-dihydrobenzo[c]isothiazol-5-yl)amino)-1H-pyrazol-5-yl)cyclopentyl propylcarbamate], the IC50 against CDK2/Cyclin E1 amounted to 0.016 µM; at CDK1/Cyclin B1, 0.356 µM.
